From patent publication US11034654B2, “2,3-dihydroisoindole-1-carboxamides useful as ROR-gamma modulators” (AstraZeneca AB, priority 2017, dated 2021)

What was measured:
[1] = molecular target: T1, RORγ ligand binding domain (Homo sapiens, UniProt P51449); assay: RORγ radioligand competition binding assay (SPA); settings: competition with tritiated 2-(4-(ethylsulfonyl)phenyl)-N-(4-(2-(methoxymethyl)phenyl)thiophen-2-yl)acetamide (25 nM), hRORγ LBD
Description: RORγ Radioligand Competition Binding Assay The aim of this assay is to identify compounds which bind to the RORγ ligand binding domain, by competing with tritiated 2-(4-(ethylsulfonyl)phenyl)-N-(4-(2-(methoxymethyl)phenyl)thiophen-2-yl)acetamide. Human RORγ (Ligand Binding Domain (RORγ LBD) was expressed in E. coli (BL21DE3 Star) as a fusion protein: N-6×HN-Avi-GST-TCS-hRORγ LBD (S258-K518) subcloned into pET24a(+). The LBD (258-518) is underlined in the protein sequence: The scintillation proximity assay (SPA) was run in white polystyrene flat-bottom 384-well plates (Greiner, cat. No. 781075). Assays were carried out in 40 μl reaction volumes. Various concentrations of test ligands in 0.4 microlitres of DMSO were added to assay plates using an acoustic liquid dispenser. 4 nM purified N-(HN)6-GST-TCS-hRORγ (258-518) was mixed with 40 micrograms Yttrium oxide (YOx) glutathione SPA imaging beads in assay buffer (20 mM Tris, 150 mM NaCl, 10% Glycerol, 0.25% CHAPS, 1 mM TCEP) prior to adding 30 microlitres to test ligands. Assay plates were incubated for one hour at room temperature before adding 10 microlitres tritiated 2-(4-(ethylsulfonyl)phenyl)-N-(4-(2-(methoxymethyl)phenyl)thiophen-2-yl)acetamide to test plates in assay buffer (final concentration, 25 nM). Test plates were incubated for 16 hours and read using a LEADseeker Multimodality imaging instrument. The raw data was analysed and IC50 and Ki values for the compounds were calculated using Genedata Screener software. Raw data was transformed to % effect using equation 1: Compound % effect=100*[(X−min)/(max−min)], where X represents the normalized value for the compound based on the Min (vehicle) and Max (reference compound) inhibition controls. The concentration of test ligand that inhibited radioligand binding by 50% (i.e., the IC50) was calculated by plotting the % effect versus test ligand concentration and fitting the data using the Genedata Screener Smart fit algorithm. Ki is calculated from the IC50 value using the equation Ki=IC50/1+[L]/Kd) where [L]=25 nmol/L and Kd=17 nmol/L

[2] = molecular target: T1, RORγ ligand binding domain; assay: RORγ co-factor recruitment assay (FRET); format: biochemical; parameters: made in house; host or cells: E. coli BL21DE3 Star; settings: inhibition of recruitment of SRC-1 peptide (NCOA1_677-700) to hRORγ LBD, HTRF read-out
Description: RORγ Co-Factor Recruitment Assay A high throughput coactivator binding assay for the identification of inverse agonists of the recruitment of peptide SRC-1 (NCOA1_677-_700) to the RORγ ligand binding domain was established. The ligand binding domain (LBD) of human RORγ was expressed in E. coli (BL21DE3 Star) as a fusion protein: N-6×HN-MBP-Avi-TCS-hRORγLBD(P260-K518) subcloned into pET24a(+). The LBD (P260-K518) is underlined in the protein sequence: The assay was run in black 384 well plates (Greiner cat no: 784900). Various concentrations of test ligands in 0.1 microlitres DMSO were dispensed to assay plates using an Echo acoustic dispenser. Two pre-mixes were prepared and incubated for 1 h at room temp in the dark. Pre-mix 1 comprised 100 nM Protein (Biotinylated HN-Avi-MBP-TCS-hRORγ (258-518)) and 60 nM Streptavidin APC in assay buffer, 50 mM MOPS pH7.4, 50 mM KF, 0.003% (w/v) CHAPS, 10 mM DTT and 0.01% (w/v) BSA and pre-mix 2 comprised 160 nM biotinylated SRC-1 peptide (NCOA1-677-700) and 20 nM Europium-W8044 labelled Streptavidin in assay buffer. Five microlitres of pre-mix 2 was dispensed to assay plates containing 0.1 microlitres of test compound and was incubated for 15 min prior to adding five microlitres of pre-mix 1. Plates were incubated at rt for 1 hour in the dark, prior to reading in a Pherastar multi-mode plate reader using HTRF filter set (ex 320, em 612 and 665). The FRET signal at 665 nm was divided by the signal at 612 nm and multiplied by 10,000 to generate a signal ratio value for each well. The raw data was transformed to % effect using the equation: Compound % effect=100*[(X−min)/(max−min)], where X represents the normalized value for the compound based on the Min (vehicle) and Max (reference compound) inhibition control. The concentration of test ligand that inhibited the activity by 50% (i.e., the IC50) was calculated by plotting the % effect versus test ligand concentration and fitting the data using the Genedata Screener Smart fit algorithm.

Compound	IC50 [1] [nM]	IC50 [2] [nM]
COC(=O)N1Cc2cc(S(C)(=O)=O)ccc2C1C(=O)Nc1ccc(C(C#N)(C(F)(F)F)C(F)(F)F)cc1 (centres unmarked) [Example 7, Methyl 1-{[4-(2-cyano-1,1,1,3,3,3-hexafluoropropan-2-yl)phenyl]carbamoyl}-5-(methylsulfonyl)-1,3-dihydro-2H-isoindole-2-carboxylate]	12.6	50.1
COCC(=O)N1Cc2cc(S(C)(=O)=O)ccc2C1C(=O)Nc1ccc(C(C#N)(C(F)(F)F)C(F)(F)F)cc1 (centres unmarked) [Example 8, N-[4-(2-Cyano-1,1,1,3,3,3-hexafluoropropan-2-yl)phenyl]-2-(methoxyacetyl)-5-(methylsulfonyl)-2,3-dihydro-1H-isoindole-1-carboxamide]	12.6	50.1
CS(=O)(=O)c1ccc2c(c1)CN(C(=O)CN)C2C(=O)Nc1ccc(C(C#N)(C(F)(F)F)C(F)(F)F)cc1 (centres unmarked) [Example 10, N-[4-(2-Cyano-1,1,1,3,3,3-hexafluoropropan-2-yl)phenyl]-2-glycyl-5-(methylsulfonyl)-2,3-dihydro-1H-isoindole-1-carboxamide]	25.1	79.4
CS(=O)(=O)c1ccc2c(c1)CN(C(=O)CCN)C2C(=O)Nc1ccc(C(C#N)(C(F)(F)F)C(F)(F)F)cc1 (centres unmarked) [Example 11, 2-(3-Aminopropanoyl)-N-[4-[1-cyano-2,2,2-trifluoro-1-(trifluoromethyl)ethyl]phenyl]-5-methylsulfonyl-isoindoline-1-carboxamide]	25.1	158
CNC(c1ccc(NC(=O)C2c3ccc(S(C)(=O)=O)cc3CN2C(C)=O)cc1)(C(F)(F)F)C(F)(F)F (centres unmarked) [Example 24, 2-Acetyl-N-{4-[1,1,1,3,3,3-hexafluoro-2-(methylamino)propan-2-yl]phenyl}-5-(methylsulfonyl)-2,3-dihydro-1H-isoindole-1-carboxamide]	31.6	50.1
CC(=O)N1Cc2cc(S(C)(=O)=O)ccc2C1C(=O)Nc1ccc(C(NCCS(C)(=O)=O)(C(F)(F)F)C(F)(F)F)cc1 (centres unmarked) [Example 26, 2-Acetyl-N-[4-(1,1,1,3,3,3-hexafluoro-2-{[2-(methylsulfonyl)ethyl]amino}propan-2-yl)phenyl]-5-(methylsulfonyl)-2,3-dihydro-1H-isoindole-1-carboxamide]	631	1000
CC(=O)N1Cc2cc(S(C)(=O)=O)ccc2C1C(=O)Nc1ccc(C(n2ccnn2)(C(F)(F)F)C(F)(F)F)cc1 (centres unmarked) [Example 29, 2-Acetyl-N-{4-[1,1,1,3,3,3-hexafluoro-2-(1H-1,2,3-triazol-1-yl)propan-2-yl]phenyl}-5-(methylsulfonyl)-2,3-dihydro-1H-isoindole-1-carboxamide]	39.8	100
CC(=O)N1Cc2cc(S(C)(=O)=O)ccc2C1C(=O)Nc1ccc(C(CC(=O)N2CC(C)(F)C2)(C(F)(F)F)C(F)(F)F)cc1 (centres unmarked) [Example 39, 2-Acetyl-5-(methylsulfonyl)-N-{4-[1,1,1-trifluoro-4-(3-fluoro-3-methylazetidin-1-yl)-4-oxo-2-(trifluoromethyl)butan-2-yl]phenyl}-2,3-dihydro-1H-isoindole-1-carboxamide]	398	> 31600
CC(=O)N1Cc2cc(S(C)(=O)=O)ccc2C1C(=O)Nc1ccc(C(CC(=O)OC(C)C)(C(F)(F)F)C(F)(F)F)cc1 (centres unmarked) [Example 40, Propan-2-yl 3-[4-({[2-acetyl-5-(methylsulfonyl)-2,3-dihydro-1H-isoindol-1-yl]carbonyl}amino)phenyl]-4,4,4-trifluoro-3-(trifluoromethyl)butanoate]	12.6	> 31600
CC(=O)N1Cc2cc(S(C)(=O)=O)ccc2C1C(=O)Nc1ccc(C(CC(=O)OC(C)(C)C)(C(F)(F)F)C(F)(F)F)cc1 (centres unmarked) [Example 44, tert-Butyl 3-[4-({[2-acetyl-5-(methylsulfonyl)-2,3-dihydro-1H-isoindol-1-yl]carbonyl}amino)phenyl]-4,4,4-trifluoro-3-(trifluoromethyl)butanoate]	15.8	> 31600

These reach a lower IC50 [1]. Values come first.

IC50 [1] [nM]	IC50 [2] [nM]	Compound
10	39.8	CS(=O)(=O)c1ccc2c(c1)CN(C=O)C2C(=O)Nc1ccc(C(C#N)(C(F)(F)F)C(F)(F)F)cc1 (centres unmarked) [Example 6, N-[4-(2-Cyano-1,1,1,3,3,3-hexafluoropropan-2-yl)phenyl]-2-formyl-5-(methylsulfonyl)-2,3-dihydro-1H-isoindole-1-carboxamide]
10	100	CS(=O)(=O)c1ccc2c(c1)CN(C(=O)CCC(=O)O)C2C(=O)Nc1ccc(C(C#N)(C(F)(F)F)C(F)(F)F)cc1 (centres unmarked) [Example 9, 4-[1-{[4-(2-Cyano-1,1,1,3,3,3-hexafluoropropan-2-yl)phenyl]carbamoyl}-5-(methylsulfonyl)-1,3-dihydro-2H-isoindol-2-yl]-4-oxobutanoic acid]
7.94	> 31600	CC(=O)N1Cc2cc(S(C)(=O)=O)ccc2C1C(=O)Nc1ccc(C(NCCOC(C)C)(C(F)(F)F)C(F)(F)F)cc1 (centres unmarked) [Example 27, 2-Acetyl-N-[4-(1,1,1,3,3,3-hexafluoro-2-{[2-(propan-2-yloxy)ethyl]amino}propan-2-yl)phenyl]-5-(methylsulfonyl)-2,3-dihydro-1H-isoindole-1-carboxamide]
7.94	39.8	COC(c1ccc(NC(=O)C2c3ccc(S(C)(=O)=O)cc3CN2C(C)=O)cc1)(C(F)(F)F)C(F)(F)F (centres unmarked) [Example 28, 2-Acetyl-N-[4-(1,1,1,3,3,3-hexafluoro-2-methoxypropan-2-yl)phenyl]-5-(methylsulfonyl)-2,3-dihydro-1H-isoindole-1-carboxamide]
6.31	39.8	CCCNC(c1ccc(NC(=O)C2c3ccc(S(C)(=O)=O)cc3CN2C(C)=O)cc1)(C(F)(F)F)C(F)(F)F (centres unmarked) [Example 16, 2-Acetyl-N-{4-[1,1,1,3,3,3-hexafluoro-2-(propylamino)propan-2-yl]phenyl}-5-(methylsulfonyl)-2,3-dihydro-1H-isoindole-1-carboxamide]
6.31	39.8	CC(=O)N1Cc2cc(S(C)(=O)=O)ccc2C1C(=O)Nc1ccc(C(N(C)C)(C(F)(F)F)C(F)(F)F)cc1 (centres unmarked) [Example 25, 2-Acetyl-N-{4-[2-(dimethylamino)-1,1,1,3,3,3-hexafluoropropan-2-yl]phenyl}-5-(methylsulfonyl)-2,3-dihydro-1H-isoindole-1-carboxamide]
